Values after ≈ are worked out from the molar mass of the structure shown.
How the values were obtained:
Assay type in all cases: cell-based
[1] = tested on: Helicobacter pylori strain HpG27; assay: Determination of MIC, broth microdilution, strain HpG27; settings: 72 hours of culture, read-out: Minimum inhibitory concentration against helicobacter pylori HpG27
Protocol: (§1) Anti-Helicobacter pylori activity of each compound is evaluated by a broth microdilution method in an activity experiment, and metronidazole, levofloxacin, clarithromycin and vancomycin used in clinic are selected as positive control drugs.
(§2) Helicobacter pylori strains HpG27, Hp159, Hp129 and Hp26695 provided by Professor Hongkai Bi of Nanjing Medical University. Culture mediums and main reagents: Colombian culture mediums, selective antibiotics (metronidazole, levofloxacin and clarithromycin), serum, and the like.
(§3) The strains were taken out of a refrigerator at −80° C. and placed at room temperature, 200 L of standard strains were accurately sucked, transferred to a solid culture medium, and spread with an L-shaped glass rod, a culture dish loaded with the strains was put into a culture bag, then an AnaeroPack was put into the culture bag, and the culture bag was quickly sealed and then put into a constant temperature incubator at 37° C. to culture for 72 hours. After the end of culture, each strain was identified first, then a lawn on the solid culture medium was scraped off, and the lawn was transferred into 50 mL of liquid culture medium to serve as an original bacterial solution.
(§4) • (1) Sample solutions of the compounds 1 to 9 obtained by separation and purification above were prepared according to a concentration of 1 mg/mL. • (2) In preparation of an MIC plate, a first well was added with 176 μL of culture medium and then added with 3.2 μL of antibacterial drug, and dilution was carried out by multiple proportions to a 7th well; and an 8th well was not added with the drug, but was reserved with 90 μL of culture medium to serve as a control with bacteria but no drug. • (3) In preparation of a bacterial solution, Helicobacter pylori growing at a logarithmic phase on a solid plate was made into a bacterial suspension with a BHI culture medium, an OD600 value of concentration of the bacterial suspension was adjusted to be 0.3 (1×10^8 CFU/mL), and the bacterial suspension was diluted by 10 times to reach 1×10^7 CFU/mL for later use. • (4) In inoculation, 10 μL of bacterial solution was added into the 1st to 8th wells (a concentration of the bacterial solution in each well was about 1.0×10^6 CFU/mL). Results were judged after 72 hours of culture. […] The test was only meaningful when the bacteria in the 8th well of the positive control well (without antibiotics) grew obviously. When there was a single drift in a microdilution method, the highest drug concentration capable of inhibiting the growth of bacteria should be recorded. If there were many drifts, the results should not be reported, and the test should be repeated.

[2] = tested on: Helicobacter pylori strain Hp26695; assay: Determination of MIC, broth microdilution, strain Hp26695; settings: 72 hours of culture, read-out: Minimum inhibitory concentration against helicobacter pylori Hp26695
Protocol: as §1, §2, §3, §4

[3] = tested on: Helicobacter pylori strain Hp129; assay: Determination of MIC, broth microdilution, strain Hp129; settings: 72 hours of culture, (R) beside control drug values, read-out: Minimum inhibitory concentration against helicobacter pylori Hp129
Protocol: as §1, §2, §3, §4

[4] = tested on: Helicobacter pylori strain Hp159; assay: Determination of MIC, broth microdilution, strain Hp159; settings: 72 hours of culture, (R) beside control drug values, read-out: Minimum inhibitory concentration against helicobacter pylori Hp159
Protocol: as §1, §2, §3, §4

[5] = tested on: drug-resistant and sensitive Helicobacter pylori; assay: Determination of MIC, broth microdilution, summary over strains; settings: two kinds of drug-resistant and sensitive Helicobacter pylori; range over strains
Protocol: as §1, §2, §3, §4

Row | Compound | MIC [1] [µg/mL] | MIC [2] [µg/mL] | MIC [3] [µg/mL] | MIC [4] [µg/mL] | MIC [5] [µg/mL]
1 | COc1c(O)cc(CCc2cc(O)cc(OC(C)=O)c2CC=C(C)C)cc1CC=C(C)C [Compound 5, uralensisol K] | > 16 | > 16 | > 16 | > 16 | 
2 | O=Cc1c(O)cc(O)cc1CCc1ccc(O)cc1 [Compound 8, uralensisol N] | > 16 | > 16 | > 16 | > 16 | 
3 | CCC(C)C(=O)Oc1cc(O)cc(CCc2ccc(O)cc2)c1CC=C(C)C (centres unmarked) [Compound 2] | > 16 | > 16 | > 16 | > 16 | 
4 | CC(=O)Oc1cc(O)c(CC=C(C)C)c(CCc2ccc(O)cc2)c1CC=C(C)C [Compound 7, uralensisol M] | 8 (≈ 19.6 µM) | 8 (≈ 19.6 µM) | 8 (≈ 19.6 µM) | 8 (≈ 19.6 µM) | 4 to 8 (≈ 9.79 to 19.6 µM)
5 | CC(=O)Oc1cc(O)cc(CCc2ccc(O)c(CC=C(C)C)c2)c1CC=C(C)C [Compound 4, uralensisol J] | > 16 | > 16 | > 16 | > 16 | 

The remaining lines, values ahead:

Row | MIC [1] [µg/mL] | MIC [2] [µg/mL] | MIC [3] [µg/mL] | MIC [4] [µg/mL] | MIC [5] [µg/mL] | Compound
6 | 8 (≈ 21.8 µM) | 8 (≈ 21.8 µM) | 8 (≈ 21.8 µM) | 8 (≈ 21.8 µM) | 4 to 8 (≈ 10.9 to 21.8 µM) | CC(C)=CCc1cc(CCc2cc(O)cc(O)c2CC=C(C)C)ccc1O [Compound 9, uralensisol 0]
7 | 4 (≈ 10.9 µM) | 8 (≈ 21.8 µM) | 8 (≈ 21.8 µM) | 8 (≈ 21.8 µM) | 4 to 8 (≈ 10.9 to 21.8 µM) | CC(C)=CCc1c(O)cc(O)c(CC=C(C)C)c1CCc1ccc(O)cc1 [Compound 6, uralensisol L]
8 | 0.008 (≈ 0.0107 µM) | 0.008 (≈ 0.0107 µM) | 1 (≈ 1.34 µM) | 2 (≈ 2.67 µM) |  | CC[C@H]1OC(=O)[C@H](C)[C@@H](O[C@H]2C[C@@](C)(OC)[C@@H](O)[C@H](C)O2)[C@H](C)[C@@H](O[C@@H]2O[C@H](C)C[C@H](N(C)C)[C@H]2O)[C@](C)(OC)C[C@@H](C)C(=O)[C@H](C)[C@@H](O)[C@]1(C)O [CLR, clarithromycin, reference compound]
9 | 2 (≈ 11.7 µM) | 1 (≈ 5.84 µM) | 32 (≈ 187 µM) | 16 (≈ 93.5 µM) |  | Cc1ncc([N+](=O)[O-])n1CCO [MTZ, metronidazole, reference compound]
10 | 8 (≈ 21.7 µM) | 8 (≈ 21.7 µM) | 8 (≈ 21.7 µM) | 8 (≈ 21.7 µM) | 4 to 8 (≈ 10.9 to 21.7 µM) | CC(C)=CCc1c(CCc2ccc(O)cc2)cc(O)cc1OC(=O)C(C)C [Compound 1]
11 | 4 (≈ 12.8 µM) | 4 (≈ 12.8 µM) | 8 (≈ 25.6 µM) | 8 (≈ 25.6 µM) | 4 to 8 (≈ 12.8 to 25.6 µM) | COc1cc(O)c(CC=C(C)C)c(CCc2ccc(O)cc2)c1 [Compound 3, uralensisol I]
12 | 0.25 (≈ 0.692 µM) | 0.25 (≈ 0.692 µM) | 8 (≈ 22.1 µM) | 8 (≈ 22.1 µM) |  | C[C@H]1COc2c(N3CCN(C)CC3)c(F)cc3c(=O)c(C(=O)O)cn1c23 [LVX, levofloxacin, reference compound]

From patent publication US20240366546A1, “ANTI-HELICOBACTER PYLORI DERIVATIVE CONTAINING DIHYDROSTILBENE PARENT NUCLEUS AND PREPARATION METHOD AND APPLICATION THEREOF” (NANJING UNIVERSITY OF CHINESE MEDICINE, priority 2024, published 2024)
